Test results reported in US7589078B2, “Anti-viral nucleoside analogs and methods for treating viral infections, especially HIV infections” (Yale University, priority 2003, dated 2009).
“Also recorded” adds a separate entry of the source. Like-named read-outs stand apart in the source and are kept apart here.

What was measured:
[1] = tested on: HIV; conditions: Maag et al (29), O-Yang et al (32); cited from earlier work
[2] = biological target: T1, thymidine kinase (TK-1) (Homo sapiens, UniProt P04183); experiment: Monophosphorylation of analogs by thymidine kinase; type: biochemical; parameters: phosphorylated by thymidine kinase (TK-1) from CEM cells; endogenous in cells; conditions: for Relative Vmax: 250 μM dThd or analog, 2.4 mM ATP, 0.07 unit TK-1, 37° C., 285 min, dThd = 100
T1 sequence (P04183 1-234): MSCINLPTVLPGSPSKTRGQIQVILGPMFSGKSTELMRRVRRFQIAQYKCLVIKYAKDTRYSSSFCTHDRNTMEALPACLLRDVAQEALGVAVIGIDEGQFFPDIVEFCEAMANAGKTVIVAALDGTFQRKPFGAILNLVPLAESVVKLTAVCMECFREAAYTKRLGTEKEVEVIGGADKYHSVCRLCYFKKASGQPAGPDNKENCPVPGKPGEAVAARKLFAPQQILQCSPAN
Procedure: Monophosphorylation of Analogs by Thymidine Kinase: All the analogs were tested for their ability to be phosphorylated by thymidine kinase (TK-1) from CEM cells. This enzyme was purified by an affinity column technique developed in this laboratory (7). […] At the end of the incubation time the reaction was stopped by the addition of 3 parts cold HPLC grade methanol. After incubating on ice for at least 10 min. the methanol insoluble material is precipitated by centrifugation and the methanol soluble supernatants were placed into clean microfuge tubes. These samples were brought to dryness in a Speedvac Centrifuge. The samples were dissolved in water and separated on a Shimatzu HPLC model SCL 10Avp using a gradient of water to 300 mM potassium phosphate and a Whatman 10/25 particle SAX column. Km and relative Vmax studies were done in a similar fashion, using the same mixture and different amounts of substrate and enzyme.

[3] = biological target: T1, thymidine kinase (TK-1); experiment: Thymidine kinase assay with added nucleoside ([14C]-dThd to dTMP); conditions: [14C]-dThd 25 μM, added nucleoside 250 μM; compared to reactions with no additions
Procedure: After two additional washes in ethanol, the discs were dried and placed in scintillation vials that contained 5 ml SafeScint Scintillation Cocktail (American Bioanalytical, Natick, Mass.). The amount of radioactivity, which represents the amount of dTMP formed, was quantitated in a Beckman LS5000TD Scintillation Counter (Beckman Instruments Inc., Palo Alto, Calif.).

[4] = tested on: CEM cells; experiment: Cellular toxicity in CEM cells (cell counts); conditions: for IC50: Homo sapiens, CCRF-CEM, 96 h, read-out: Cellular ID50
Procedure: The basic procedures are similar. The cells are seeded a low concentration, then serial dilutions of test compound are added. […] After 48 to 96 h incubation at 37° C. in a 5% CO2 humidified incubator the assay is ended. The drug treated samples are compared to the untreated controls. This is accomplished in suspension cell lines by counting cell numbers either with a hemocytometer or by using a Coulter Counter.
The numbers in parentheses represent the mean and standard deviations of percentage of untreated CEM control cells at the concentration indicated.

[5] = tested on: HIV-1 strain IIIB; experiment: Antiviral activity in MT-2 cells infected with HIV-1 strain IIIB (MTT); type: cell-based
Procedure: Determination of antiviral activity: Compounds were tested in MT-2 cells infected with HIV-1 strain IIIB essentially as described previously (31). […]. Calculations of the percent protection and isobologram combination studies are described (12).

[6] = tested on: mtDNA content of CEM cells; experiment: Mitochondrial DNA content in CEM cells (Southern blot); type: cell-based; conditions: for IC50: four days, read-out: Mitochondrial DNA Content ID50
Procedure: Mitochondrial DNA: The effect of nucleoside analogs on mtDNA content was assessed as described previously (2). […] Cells treated with drugs at various concentrations either as single agents or in combination were grown for four days. Cells were then harvested, treated with proteinase K and DNase free RNase. Extracts were applied to nylon membranes and hybridized with an mtDNA probe. After stripping the membrane the load was normalized by rehybridizing the membrane with an Alu probe. Blots were quantitated with a Molecular Dynamics personal densitometer SI with ImageQuaNT analysis software.

[7] = biological target: T2, thymidine phosphorylase (TP) (Homo sapiens, UniProt P19971); experiment: Thymidine phosphorylase assay; type: in vitro ADME; conditions: partially purified TP from human liver
T2 construct: using a partially purified prepartion of human liver extract (28) as a source of the thymidine phosphorylase (TP); from tissue; host or cells: human liver extract, partially purified
T2 sequence (P19971 11-482): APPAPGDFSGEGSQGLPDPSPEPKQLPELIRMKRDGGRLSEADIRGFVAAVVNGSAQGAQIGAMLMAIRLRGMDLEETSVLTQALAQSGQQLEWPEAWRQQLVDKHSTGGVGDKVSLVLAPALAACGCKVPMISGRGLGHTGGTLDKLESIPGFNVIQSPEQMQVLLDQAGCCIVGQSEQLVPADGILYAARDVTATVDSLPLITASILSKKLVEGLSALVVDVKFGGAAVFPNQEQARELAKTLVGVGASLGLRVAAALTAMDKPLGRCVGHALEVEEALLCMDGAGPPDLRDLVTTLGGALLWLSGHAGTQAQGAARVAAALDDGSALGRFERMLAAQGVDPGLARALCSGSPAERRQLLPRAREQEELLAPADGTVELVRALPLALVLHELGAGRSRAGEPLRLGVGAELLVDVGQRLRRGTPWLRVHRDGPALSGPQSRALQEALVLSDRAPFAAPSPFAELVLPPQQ
Procedure: Thymidine Phosphorylase Assays: Nucleoside analogs (100 μM) were incubated in 75 mM potassium phosphate buffer pH 7.3 at 37° C. using a partially purified prepartion of human liver extract (28) as a source of the thymidine phosphorylase (TP). After incubation, the reaction was stopped by the addition of trichloroacetic acid to a final concentration of 15%. The samples were then incubated on ice. After the acid insoluble components were removed by centrifugation, the supernatant was neutralized by two extractions with one half volume of trioctylamine/freon (45:55). The aqueous supernatants were examined by HPLC using the Beckman ODS column method, as described in Acid Stability Studies.

[8] = tested on: MT-2 cells; experiment: Cellular toxicity, MT-2 cell growth; type: cell-based; conditions: for IC50: Homo sapiens, MT2, MT-2 cells, read-out: ID50: concentration required to inhibit MT-2 cell growth by 50%
Description: (§1) The basic procedures are similar.

[9] = tested on: HIV-1 strain IIIB; conditions: MT-2 cells; EC50 reported previously (17); read-out: EC50: effective concentration required to achieve 50% protection from HIV in MT-2 cells; cited from earlier work
[10] = Acid stability study; type: physicochemical; conditions: 1N HCl, pH 1, 37° C., 2.5 h, HPLC
Procedure: Acid stability studies: Nucleoside samples were mixed with 1N HCl and incubated at 37° C. for 2.5 h. Then the samples were examined by HPLC using a Bechman ODS column employing a gradient of water to 80% methanol.

[11] = tested on: H-9 cells; experiment: Toxicity in H-9 cells alone and in combination (Coulter Counter); type: cell-based; conditions: for Percent of Untreated Controls: H-9 cells, 48 h
Description: as §1

[12] = tested on: CEM cellular extract supplemented with partially purified TK-1 and recombinant human dTMP kinase; experiment: Phosphorylation to triphosphate in CEM cellular extract with TK-1 and dTMP kinase; type: biochemical; conditions: unpublished results
[13] = substrate: C#C[C@@]1(CO)C=C[C@H](n2cc(C)c(=O)[nH]c2=O)O1; experiment: Monophosphorylation of analogs by thymidine kinase; type: biochemical; conditions: other: phosphorylation by human cytoplasmic thymidine kinase; pH 7.5
Procedure: Monophosphorylation of Analogs by Thymidine Kinase: All the analogs were tested for their ability to be phosphorylated by thymidine kinase (TK-1) from CEM cells. […] At the end of the incubation time the reaction was stopped by the addition of 3 parts cold HPLC grade methanol. After incubating on ice for at least 10 min. the methanol insoluble material is precipitated by centrifugation and the methanol soluble supernatants were placed into clean microfuge tubes. These samples were brought to dryness in a Speedvac Centrifuge. The samples were dissolved in water and separated on a Shimatzu HPLC model SCL 10Avp using a gradient of water to 300 mM potassium phosphate and a Whatman 10/25 particle SAX column. Km and relative Vmax studies were done in a similar fashion, using the same mixture and different amounts of substrate and enzyme.

[14] = substrate: Cc1cn([C@H]2C=C[C@@H](CO)O2)c(=O)[nH]c1=O; experiment: purified protein, by the assay type; conditions: other: phosphorylation by human cytoplasmic thymidine kinase; pH 7.5; 37.0 °C

Cc1cn([C@H]2C=C[C@](CO)(N=[N+]=[N-])O2)c(=O)[nH]c1=O [4′-azido D4T]
Anti-HIV activity as described by others [1]: inactive against HIV at non-toxic levels

C#C[C@@]1(CO)C=C[C@H](n2cc(C)c(=O)[nH]c2=O)O1 [4′-ethynyl D4T, 2′,3′-didehydro-3′-deoxy-4′-ethynylthymidine]
Relative Vmax [2]: 3.8 ± 0.8 | Rate of phosphorylation by TK-1, in words ([2]; purified human TK-1): superior to D4T; also recorded: twice as fast as D4T | Percent of Activity [3]: 83.9 ± 6.1% | Cell count, percentage of untreated CEM control cells ([4]; CEM cells, at 100 μM): 77 ± 16% | IC50 [4]: > 100 µM | EC50 ([5]; Human immunodeficiency virus 1, MT2, MT-2/HIV IIIB system, FIG. 10, read-out: EC50 for single agents (isobologram study)): 0.5 µM | Anti-HIV activity compared with D4T ([5]; MT-2/IIIB anti HIV-1 system, FIG. 8): more effective against HIV | Effect of addition of dCyd on the antiviral activity ([5]; dCyd 10 μM in the presence of THU 5 μM, FIG. 9): no significant effect | Effect of addition of dThd on the antiviral activity ([5]; dThd 10 μM and 1 μM added to standard antiviral assay, FIG. 9): decreased the antiviral effect | Antiviral interaction in combination (isobologram) ([5]; in combination with 3TC): synergistic | Antiviral interaction in combination (isobologram) ([5]; in combination with AZT (data not shown)): only additive | Antiviral interaction in combination (isobologram) ([5]; in combination with LFd4C): synergistic | Antiviral interaction in combination (isobologram) ([5]; in combination with ddI (data not shown)): only additive | IC50 ([6]; Homo sapiens, CCRF-CEM, 96 h): > 100 µM | Mitochondrial DNA content, percentage of untreated CEM control cells ([6]; at 100 μM): 94 ± 4% | IC50 [6]: 100 µM | Break down by thymidine phosphorylase ([7]; 100 μM nucleoside, 37° C., FIG. 11): below the detection level | IC50 [8]: > 256 µM | Toxicity compared with D4T ([8]; MT-2/IIIB system): less toxic than the parental compound D4T | EC50 [9]: 0.25 ± 0.14 µM | Stability at pH 1 [10]: No detectable breakdown | Toxic interaction on cell growth in combination with 3TC and LFd4C ([11]; H9 cells, 48 h assay): no significant increase in toxic interactions | Percent of Untreated Controls ([11]; 25 μM 4′-ethynyl D4T plus 5 μM 3TC): 98 ± 2% | Percent of Untreated Controls ([11]; 25 μM 4′-ethynyl D4T plus 5 μM LFd4C): 62 ± 3% | Percent of Untreated Controls ([11]; 25 μM 4′-ethynyl D4T plus 10 μM LFd4C): 58 ± 4% | Percent of Untreated Controls ([11]; 25 μM 4′-ethynyl D4T plus 20 μM 3TC): 88 ± 3% | Percent of Untreated Controls ([11]; 25 μM 4′-ethynyl D4T plus 100 μM 3TC): 85 ± 3% | Percent of Untreated Controls ([11]; 25 μM 4′-ethynyl D4T, no additive): 97 ± 7% | Percent of Untreated Controls ([11]; 50 μM 4′-ethynyl D4T plus 5 μM 3TC): 99 ± 10% | Percent of Untreated Controls ([11]; 50 μM 4′-ethynyl D4T plus 5 μM LFd4C): 72 ± 5% | Percent of Untreated Controls ([11]; 50 μM 4′-ethynyl D4T plus 10 μM LFd4C): 64 ± 5% | Percent of Untreated Controls ([11]; 50 μM 4′-ethynyl D4T plus 20 μM 3TC): 87 ± 6% | Percent of Untreated Controls ([11]; 50 μM 4′-ethynyl D4T plus 100 μM 3TC): 84 ± 6% | Percent of Untreated Controls ([11]; 50 μM 4′-ethynyl D4T, no additive): 102 ± 6%

Cc1cn([C@H]2C=C[C@@H](CO)O2)c(=O)[nH]c1=O [D4T, 2′,3′-Didehydro-3′-deoxythymidine, reference compound]
Relative Vmax [2]: 2.1 ± 0.7 | Rate of conversion to the monophosphate form ([2]; purified human TK-1): approximately 2% of dThd | Percent of Activity [3]: 106.3 ± 7.7% | IC50 [4]: 60 ± 18 µM | EC50 ([5]; Human immunodeficiency virus 1, IIIB, MT2, read-out: EC50: effective concentration required to achieve 50% protection from HIV in MT-2 cells): 1.3 ± 0.4 µM | EC50 ([5]; Human immunodeficiency virus 1, IIIB, MT2, read-out: EC50 for single agents (isobologram study)): 1.4 µM | IC50 ([6]; Homo sapiens, CCRF-CEM, 96 h): 9.3 ± 1.4 µM | Break down by thymidine phosphorylase, times slower than dThd [7]: at least 10 times | Phosphorylation to the triphosphate metabolite [12]: more efficiently phosphorylated to the triphosphate metabolite than 4′-ethynyl D4T | IC50 [8]: 98 ± 10.8 µM | Stability at pH 1 [10]: No detectable breakdown

B1: thymidine kinase (TK-1) (Homo sapiens) (protein)
chain: T1 sequence (P04183 1-234)
notes: phosphorylated by thymidine kinase (TK-1) from CEM cells; endogenous in cells
Km [13]: 52 µM | Km [14]: 133 µM
